Experimental data taken from US20130029964A1, “[5, 6] HETEROCYCLIC COMPOUND” (DAIICHI SANKYO COMPANY, LIMITED, priority 2010, published 2013).
Structures can show the parent of a compound that is named as a salt.

What follows are compounds tested on ST2 cells, murine bone marrow-derived stromal cells (assay: Osteoblast differentiation test (ALP activity)). Details: Mus musculus, ST-2, 96 h, at 0.1 μg/mL, control group (0.1% DMSO) = 100%, four days of culturing, read-out: alkaline phosphatase activity.
Format: cell-based
Protocol: ST2 cells, murine bone marrow-derived stromal cells, (obtained from RIKEN) were used.
In this test, α-MEM media (obtained from GIBCO BRL Cat. No. 10370-021) containing 10% (v/v) of inactivated calf serum (obtained from Hyclone Laboratories, Inc.) and 1% (v/v) of Penicillin-Streptomycin Liquid (obtained from GIBCO BRL Cat. No. 15140-122) (hereinbelow, abbreviated as 10%-FBS-αMEM) were used. In this test, all culturing was performed in a CO2 incubator (37° C., 95% humidity, 5% CO2).
The aforementioned cells were detached with 2 mL of a 0.25% trypsin solution (obtained from GIBCO BRL Cat. No. 15050-065) and dispersed in 10 mL of 10%-FBS-αMEM. Subsequently, the cells were collected by centrifugation (25° C., 800 rpm, five minutes). Then, a cell suspension containing 40000 of the cells/mL of 10%-FBS-αMEM was prepared. The cell suspension was then dispensed into 96-well plates (the product of Falcon), 100 μL per well, at a density of 4000 cells/well, followed by culturing for 24 hours. To the wells, except for the below-described well containing a control group, the compound was dispensed at final concentrations of 0.01, 0.03, 0.1, and 0.3 μg/ml. To the well of a control group, DMSO was dispensed at a final concentration of 0.1% (v/v). After four days of culturing, the activity of alkaline phosphatase (ALP) was measured in each group.
The measurement of ALP activity was performed as follows. That is, the medium in each well of the culture plates was completely removed. Each well was then washed by dispensing 100 μL of Dulbecco's phosphate buffer (obtained from GIBCO BRL Cat. No. 14190-144) and then removing it. A cell lysate solution containing 10 mM MgCl2 and 2% (v/v) TritonX-100 (Sigma) was prepared and dispensed at 50 μL/well, followed by stirring at room temperature for five minutes. An ALP substrate solution containing 50 mM diethanolamine (Wako Pure Chemical Industries, Ltd., Cat. No. 099-03112) and 20 mM p-nitrophenyl phosphate (Wako Pure Chemical Industries, Ltd., Cat. No. 147-02343) was prepared and dispensed at 50 μL/well, and the plates were left to stand at room temperature for 10 minutes. Subsequently, absorbance was measured by a microplate reader (Bio-Rad Laboratories, Inc.). Setting the measurement value of the control group of each plate at 100%, alkaline phosphatase activity (increase (%)) in the test compound-addition group was calculated, which was assessed as the degree of osteoblast differentiation.
For `COc1ccn2ncc(-c3ccc(NCCO)cc3)c2c1` [Example 121], the activity at 0.1 µg/mL was ≥ 200%.
`COc1ccc2c(-c3ccc(OCCO)cc3)cnn2c1` [Example 125] was tested, and the activity at 0.1 µg/mL was ≥ 200%.
`OCCOc1ccc(-c2cnn3cc(-c4ccncc4)ccc23)cc1` [Example 11, 2-[4-(6-Pyridin-4-ylpyrazolo[1,5-a]pyridin-3-yl)phenoxy]ethanol] was tested, and the activity at 0.1 µg/mL was ≥ 200%.
In the case of `OC1COCC1OCCOc1ccc(-c2cnc3ccc(F)cn23)cc1` (centres unmarked) [Example 86], the activity at 0.1 µg/mL is reported as ≥ 200%.
`OCCOc1ccc(-c2cnc3cc(N4CCOCC4)ccn23)cc1` [Example 70] was tested, and the activity at 0.1 µg/mL was ≥ 200%.
In the case of `c1cn(-c2ccc3ncc(-c4ccc(OCCOC5CCOCC5)cc4)n3c2)cn1` [Example 112], the activity at 0.1 µg/mL is reported as ≥ 200%.
With `CN(C)C(=O)c1cccc(-c2ccn3c(-c4ccc(OCCO)cc4)cnc3c2)c1` [Example 106] the activity at 0.1 µg/mL was ≥ 200%.
With `CC(=O)N1CC=C(c2ccn3c(N4CCC(OCCO)CC4)cnc3c2)CC1` [Example 10, 2-({1-[7-(1-Acetyl-1,2,3,6-tetrahydropyridin-4-yl)imidazo[1,2-a]pyridin-3-yl]piperidin-4-yl}oxy)ethanol hydrochloride] the activity at 0.1 µg/mL was ≥ 200%.
For `Cc1ccc2ncc(-c3ccc(OCCOC4CCOCC4)cc3)n2c1` [Example 145], the activity at 0.1 µg/mL was ≥ 200%.
In the case of `O=C(c1ccc(-c2ccn3c(N4CCC(OCCO)CC4)cnc3c2)cc1)N1CCOCC1` [Example 103], the activity at 0.1 µg/mL is reported as ≥ 200%.
In the case of `c1cc(-c2ccc3c(-c4ccc(OCCOC5CCOCC5)cc4)cnn3c2)ccn1` [Example 127], the activity at 0.1 µg/mL is reported as ≥ 200%.
For `OCCOc1ccc(-c2cnc3cc(-c4ccncc4)ccn23)cc1` [Example 72], the activity at 0.1 µg/mL was ≥ 200%.
With `OCCOc1ccc(-n2cnc3cc(-c4ccccn4)ccc32)cc1` [Example 128] the activity at 0.1 µg/mL was ≥ 200%.
`c1ccn2ncc(-c3ccc(OCCOC4CCOCC4)cc3)c2c1` [Example 147] was tested, and the activity at 0.1 µg/mL was ≥ 200%.
For `OCCNc1ccc(-n2cnc3ccc(Cl)cc32)cc1` [Example 4, 2-{[4-(6-Chloro-1H-benzimidazol-1-yl)phenyl]amino}ethanol hydrochloride], the activity at 0.1 µg/mL was ≥ 200%.
In the case of `OCCOc1ccc(-c2cnc3ccc(-c4cc[nH]c4)cn23)cc1` [Example 8, 2-{4-[6-(1H-Pyrrol-3-yl)imidazo[1,2-a]pyridin-3-yl]phenoxy}ethanol], the activity at 0.1 µg/mL is reported as ≥ 200%.
In the case of `C#Cc1ccc2ncc(-c3ccc(OCCOC4CCOCC4)cc3)n2c1` [Example 21, 6-Ethynyl-3-{4-[2-(tetrahydro-2H-pyran-4-yloxy)ethoxy]phenyl}imidazo[1,2-a]pyridine], the activity at 0.1 µg/mL is reported as ≥ 200%.
`Cn1ccc(-c2ccn3c(-c4ccc(OCCO)cc4)cnc3c2)c1` [Example 67] was tested, and the activity at 0.1 µg/mL was ≥ 200%.
For `N#Cc1ccc2ncc(-c3ccc(OCCOC[C@H]4COCCO4)cc3)n2c1` [Example 93], the activity at 0.1 µg/mL was ≥ 200%.
With `OCCNc1ccc(-c2cnc3ccc(Cl)cn23)cc1` [Example 118] the activity at 0.1 µg/mL was ≥ 200%.
With `COc1ccc2ncc(-c3ccc(OCCO)cc3)n2c1` [Example 124] the activity at 0.1 µg/mL was ≥ 200%.
With `c1cc(-c2ccc3ncc(-c4ccc(NCCOC5CCOCC5)cc4)n3c2)ccn1` [Example 142] the activity at 0.1 µg/mL was ≥ 200%.
For `O=C(c1ccc(-c2ccc3c(-c4ccc(OCCO)cc4)cnn3c2)nc1)N1CCOCC1` [Example 146], the activity at 0.1 µg/mL was ≥ 200%.
`O=C(c1ccc(-c2ccc3c(c2)ncn3-c2ccc(OCCO)cc2)nc1)N1CCOCC1` [Example 130] was tested, and the activity at 0.1 µg/mL was ≥ 200%.
`FC(F)Oc1ccc2ncn(-c3ccc(OCCOC[C@H]4COCCO4)cc3)c2c1` [Example 95] was tested, and the activity at 0.1 µg/mL was ≥ 200%.
`COc1ccc2c(c1)ncn2-c1ccc(OCCO)cc1` [Example 27] was tested, and the activity at 0.1 µg/mL was ≥ 200%.
With `CC(=O)N1CCC(OCCOc2ccc(-n3cnc4ccccc43)cc2)CC1` [Example 46] the activity at 0.1 µg/mL was ≥ 200%.
For `Fc1ccc2ncc(-c3ccc(OCCOC[C@@H]4COCCO4)cc3)n2c1` [Example 88], the activity at 0.1 µg/mL was ≥ 200%.
For `c1cc(-n2cnc3cc4c(cc32)OCCO4)ccc1OCCOC1CCOCC1` [Example 49], the activity at 0.1 µg/mL was ≥ 200%.
In the case of `O=C(c1ccc(-c2ccn3c(-c4ccc(OCCOC5CCOCC5)cc4)cnc3c2)cn1)N1CCOCC1` [Example 133], the activity at 0.1 µg/mL is reported as ≥ 200%.
In the case of `N#Cc1ccc2ncc(-c3ccc(OCCOC4CCOCC4)cc3)n2c1` [Example 148], the activity at 0.1 µg/mL is reported as ≥ 200%.
For `FC(F)Oc1ccc2ncn(-c3ccc(OCCOC4CCOCC4)cc3)c2c1` [Example 25, 6-(Difluoromethoxy)-1-{4-[2-(tetrahydro-2H-pyran-4-yloxy)ethoxy]phenyl}-1H-benzimidazole hydrochloride], the activity at 0.1 µg/mL was ≥ 200%.
`c1ccc2c(c1)ncn2-c1ccc(OCCOC2CCOCC2)cc1` [Example 100] was tested, and the activity at 0.1 µg/mL was ≥ 200%.
For `NS(=O)(=O)c1ccc(-c2ccc3c(c2)ncn3-c2ccc(OCCO)cc2)cc1` [Example 52], the activity at 0.1 µg/mL was ≥ 200%.
With `CS(=O)(=O)Nc1ccc(-c2ccc3c(c2)ncn3-c2ccc(OCCO)cc2)cc1` [Example 53] the activity at 0.1 µg/mL was ≥ 200%.
For `COc1ccc2c(c1)ncn2-c1ccc(NCCO)cc1` [Example 5, 2-{[4-(5-Methoxy-1H-benzimidazol-1-yl)phenyl]amino}ethanol hydrochloride], the activity at 0.1 µg/mL was ≥ 200%.
With `c1ccn2c(N3CCC(OCCOC4CCOCC4)CC3)cnc2c1` [Example 79] the activity at 0.1 µg/mL was ≥ 200%.
`OCCOc1ccc(-n2cnc3cc(-c4cccnc4)ccc32)cc1` [Example 42] was tested, and the activity at 0.1 µg/mL was ≥ 200%.
For `Clc1ccc2ncc(-c3ccc(OCCOC4CCOCC4)cc3)n2c1` [Example 131], the activity at 0.1 µg/mL was ≥ 200%.
With `Fc1ccc2ncc(-c3ccc(OCCO[C@@H]4CCOC4)cc3)n2c1` [Example 110] the activity at 0.1 µg/mL was ≥ 200%.
`c1ccn2ncc(-c3ccc(NCCOC4CCOCC4)cc3)c2c1` [Example 143] was tested, and the activity at 0.1 µg/mL was ≥ 200%.
`Clc1ccc2ncc(-c3ccc(NCCOC4CCOCC4)cc3)n2c1` [Example 135] was tested, and the activity at 0.1 µg/mL was ≥ 200%.
With `OCCOc1ccc(-n2cnc3cc(-c4cc[nH]c4)ccc32)cc1` [Example 57] the activity at 0.1 µg/mL was ≥ 200%.
In the case of `Clc1ccn2c(N3CCC(OCCOC4CCOCC4)CC3)cnc2c1` [Example 139], the activity at 0.1 µg/mL is reported as ≥ 200%.
With `c1ccn2c(-c3ccc(OCCOC4CCOCC4)cc3)cnc2c1` [Example 98] the activity at 0.1 µg/mL was ≥ 200%.
In the case of `Fc1ccc2ncc(-c3ccc(OCCOC[C@H]4COCCO4)cc3)n2c1` [Example 87], the activity at 0.1 µg/mL is reported as ≥ 200%.
`OCCOCCNc1ccc(-n2cnc3ccccc32)cc1` [Example 3, 2-(2-{[4-(1H-Benzimidazol-1-yl)phenyl]amino}ethoxy)ethanol] was tested, and the activity at 0.1 µg/mL was ≥ 200%.
With `CC(=O)N1CC=C(c2ccc3c(c2)ncn3-c2ccc(OCCO)cc2)CC1` [Example 60] the activity at 0.1 µg/mL was ≥ 200%.
`CC(=O)n1ccc(-c2ccc3c(c2)ncn3-c2ccc(OCCO)cc2)c1` [Example 62] was tested, and the activity at 0.1 µg/mL was ≥ 200%.
`OCCOc1ccc(-n2cnc3cc(-c4cncnc4)ccc32)cc1` [Example 38] was tested, and the activity at 0.1 µg/mL was ≥ 200%.
For `O=C(c1ccc(-c2ccn3c(-c4ccc(NCCOC5CCOCC5)cc4)cnc3c2)nc1)N1CCOCC1` [Example 132], the activity at 0.1 µg/mL was ≥ 200%.
With `OCCOc1ccc(-c2cnc3ccccn23)cc1` [Example 115] the activity at 0.1 µg/mL was ≥ 200%.
With `CC(=O)N1CC=C(c2ccn3c(N4CCC(OCCOC5CCOCC5)CC4)cnc3c2)CC1` [Example 77] the activity at 0.1 µg/mL was ≥ 200%.
`N#Cc1ccc2ncn(-c3ccc(OCCOC4CCOCC4)cc3)c2c1` [Example 24, 1-{4-[2-(Tetrahydro-2H-pyran-4-yloxy)ethoxy]phenyl}-1H-benzimidazole-6-carbonitrile hydrochloride] was tested, and the activity at 0.1 µg/mL was ≥ 200%.
`O=C(O)c1ccc(-c2ccc3c(c2)ncn3-c2ccc(OCCO)cc2)cc1` [Example 13, 4-{1-[4-(2-Hydroxyethoxy)phenyl]-1H-benzimidazol-5-yl}benzoic acid] was tested, and the activity at 0.1 µg/mL was ≥ 200%.
With `OCCOc1ccc(-n2cnc3cc4c(cc32)OCCO4)cc1` [Example 35] the activity at 0.1 µg/mL was ≥ 200%.
In the case of `CCOc1ccc2c(-c3ccc(OCCO)cc3)cnn2c1` [Example 126], the activity at 0.1 µg/mL is reported as ≥ 200%.
With `CS(=O)(=O)N1CCC(OCCOc2ccc(-n3cnc4ccccc43)cc2)CC1` [Example 45] the activity at 0.1 µg/mL was ≥ 200%.
For `COc1ccn2c(-c3ccc(NCCO)cc3)cnc2c1` [Example 119], the activity at 0.1 µg/mL was ≥ 200%.
For `Fc1ccc2ncc(-c3ccc(OCCOCC4CCOCC4)cc3)n2c1` [Example 80], the activity at 0.1 µg/mL was ≥ 200%.
With `Fc1ccc2ncc(-c3ccc(OCCOC4CCOCC4)cc3)n2c1` [Example 144] the activity at 0.1 µg/mL was ≥ 200%.
For `Clc1ccn2c(-c3ccc(OCCOC4CCOCC4)cc3)cnc2c1` [Example 78], the activity at 0.1 µg/mL was ≥ 200%.
